Source: patent publication US5631382A, “Fulgimide compound” (Tokuyama Corporation, priority 1994, dated 1997)

Legend:
Assay type in all cases: physicochemical
[1] = Developed color of polymer plate under xenon light (color density, maximum absorption wavelength); settings: for Color density: 0.04 parts in polymer plate; for λ max: state of developing color, polymer plate
Source text: (§1) 0.04 Parts of fulgimide compounds shown in Table 3, 70 parts of tetraethyleneglycol dimethacrylate, 15 parts of triethyleneglycol dimethacrylate, 10 parts of glycidyl methacrylate, 5 parts of 2-hydroethylmethacrylate and 1 part of perbutyl ND as a polymerization catalyst, were sufficiently mixed together until they were completely dissolved. The mixture solution was poured into a mold constituted by a glass plate and a gasket of an ethylene/vinyl acetate copolymer, and its temperature was elevated in an air oven from 35° C. to 90° C. over a period of 20 hours to effect the polymerization. After the polymerization, the polymer was taken out from the glass mold.
(§2) The obtained polymer plate was irradiated with xenon light by using a Xenon Long-Life Fade Meter FAL-25AX-HC (output: 2.5 KW, source of light: xenon long-life arc lamp) manufactured by Suga Shikenki Co., in order to measure a maximum absorption wavelength in a state of developing color. The initial color tone was observed by eyes, and YI of the samples was measured by using a color-difference meter (Model SM-4) manufactured by Suga Shikenki Co. The wear life (T 1/2) was also measured in compliance with JIS L0843 and JIS B7754. T 1/2 is defined to be the time until the color density decreases down to one-half the initial value when the polymer plate is irradiated with light by using the fade meter.
(§3) For the purpose of comparison, the fulgimide compounds represented by the following formulas (A) to (I) were also used to prepare polymer plates to measure their properties in the same procedure as described above. [drawing 113]

[2] = Initial color of polymer plate (visual observation, YI by color-difference meter); settings: for Initial color, visually observed: before irradiation; for Initial color, YI: color-difference meter SM-4
Source text: as §1, §2, §3

[3] = Wear life (T 1/2) of polymer plate in xenon fade meter, JIS L0843 and JIS B7754; settings: time until color density decreases to one-half the initial value
Source text: as §1, §2, §3

Row | Compound | Color density [1] | λ max [1] [nm] | Initial color, visually observed [2] | Initial color, YI [2] | T1/2 [3] [h]
1 | CCC1=C2C(=O)N(S(=O)(=O)O)C(=O)C2C2(c3c(OC)cc(OC)cc31)C1CC3CC(C1)CC2C3 (centres unmarked) [Compound 27] | 0.68 | 568 | pale yellow | 4.68 | 100
2 | CC1=C2C(=O)N(C#N)C(=O)C2C2(c3sccc31)C1CC3CC(C1)CC2C3 (centres unmarked) [Compound 28] | 0.56 | 604 | colorless | 2.06 | 270
3 | N#CN1C(=O)C2=C(C3CC3)c3ccoc3C3(C4CC5CC(C4)CC3C5)C2C1=O (centres unmarked) [Compound 29] | 0.98 | 600 | colorless | 2.01 | 385
4 | COc1cc(OC)c2c(c1)C(C)=C1C(=O)N(C#N)C(=O)C1C21C2CC3CC(C2)CC1C3 (centres unmarked) [Compound 30] | 0.73 | 590 | colorless | 2.21 | 210
5 | CC1=C2C(=O)N(C#N)C(=O)C2C2(c3occc31)C1CC3CC(C1)CC2C3 (centres unmarked) [Compound 31] | 0.65 | 580 | colorless | 2.00 | 265

The next lines start with the values.

Row | Color density [1] | λ max [1] [nm] | Initial color, visually observed [2] | Initial color, YI [2] | T1/2 [3] [h] | Compound
6 | 0.70 | 550 | colorless | 2.11 | 105 | CC(=O)N1C(=O)C2=C(C)c3ccsc3C3(C4CC5CC(C4)CC3C5)C2C1=O (centres unmarked) [Compound 32]
7 | 0.58 | 550 | colorless | 2.16 | 100 | CC1=C2C(=O)N(C(=O)c3ccccc3)C(=O)C2C2(c3occc31)C1CC3CC(C1)CC2C3 (centres unmarked) [Compound 33]
8 | 0.82 | 570 | yellow | 10.75 | 90 | CC1=C2C(=O)N(CC#N)C(=O)C2C2(c3sc(-c4ccccc4)cc31)C1CC3CC(C1)CC2C3 (centres unmarked) [D, reference compound]
9 | 0.90 | 580 | yellow | 18.21 | 90 | COc1ccc(-c2cc3c(s2)C2(C4CC5CC(C4)CC2C5)C2C(=O)N(CC#N)C(=O)C2=C3C)cc1 (centres unmarked) [E, reference compound]
10 | 0.75 | 600 | yellow | 19.23 | 80 | CCN1C(=O)C2=C(C)c3cc(-c4ccc(OC)cc4)n(-c4ccccc4)c3C3(C4CC5CC(C4)CC3C5)C2C1=O (centres unmarked) [F, reference compound]
11 | 0.88 | 610 | yellow | 19.56 | 85 | CCN1C(=O)C2=C(C)c3cc(-c4ccc(OC)cc4)n(C)c3C3(C4CC5CC(C4)CC3C5)C2C1=O (centres unmarked) [G, reference compound]
12 | 0.78 | 620 | yellow | 19.52 | 80 | CCOC(=O)CN1C(=O)C2=C(C)c3cc(-c4ccc(OC)cc4)n(C)c3C3(C4CC5CC(C4)CC3C5)C2C1=O (centres unmarked) [H, reference compound]
13 | 0.73 | 630 | yellow | 18.89 | 80 | COc1ccc(-c2cc3c(n2C)C2(C4CC5CC(C4)CC2C5)C2C(=O)N(CC#N)C(=O)C2=C3C)cc1 (centres unmarked) [I, reference compound]
